Test system: LG0567-F671-PDC complex spheroids viability
Test: Anticancer human tumor LG0567-F671-PDC patient-derived lung adenocarcinoma cell line growth inhibition [RAS]
Conditions: for IC50: curve of first compound; for viability, T/C: stronger effect = lower value
In short: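 Tumour cells grown as complex spheroids with HUVEC endothelial cells and mesenchymal stem cells, treated with RAS pathway inhibitor combinations. Each agent spans half-log steps from near clinical Cmax, or 10 microM where Cmax is unknown.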
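Also: spheroids exposed to compound for seven days before readout.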
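For IC50 in this document: luminescence signal used as a proxy for viable cells.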

`CC1(C)CCC(Nc2ncc(C(F)(F)F)c(-c3c[nH]c4c(P(C)(C)=O)c(C#N)ccc34)n2)CN1` (configuration not stated) + C#Cc1c(F)ccc2cc(O)cc(-c3ncc4c(N5CC6CCC(C5)N6)nc(OCC56CCCN5CC(F)C6)nc4c3F)c12 was tested, and the IC50 (second compound 0.0316 µM) was 4360 pM, the IC50 (second compound 0.1 µM) was under 949 pM and the IC50 (second compound 0.316 µM) was under 949 pM. The IC50 (second compound 1 µM) was under 949 pM, the IC50 (second compound 3.16 µM) was under 949 pM and the IC50 (second compound 10 µM) was under 949 pM. The viability, T/C (second compound 0.0316 µM, first compound 0.000949 µM) was 61.2%, the viability, T/C (second compound 0.0316 µM, first compound 0.003 µM) was 50.8% and the viability, T/C (second compound 0.0316 µM, first compound 0.00949 µM) was 48.4%. The viability, T/C (second compound 0.0316 µM, first compound 0.03 µM) was 45.5%, the viability, T/C (second compound 0.0316 µM, first compound 0.0949 µM) was 43.3% and the viability, T/C (second compound 0.0316 µM, first compound 0.3 µM) was 46%. It also gave a viability, T/C (second compound 0.1 µM, first compound 0.000949 µM) of 54.5%, a viability, T/C (second compound 0.1 µM, first compound 0.003 µM) of 45.1% and a viability, T/C (second compound 0.1 µM, first compound 0.00949 µM) of 42.7%. For the same molecule, the viability, T/C (second compound 0.1 µM, first compound 0.03 µM) was 45.3%, the viability, T/C (second compound 0.1 µM, first compound 0.0949 µM) was 45.2% and the viability, T/C (second compound 0.1 µM, first compound 0.3 µM) was 44.4%. It also gave a viability, T/C (second compound 0.316 µM, first compound 0.000949 µM) of 40.9%, a viability, T/C (second compound 0.316 µM, first compound 0.003 µM) of 34.8% and a viability, T/C (second compound 0.316 µM, first compound 0.00949 µM) of 36%. The viability, T/C (second compound 0.316 µM, first compound 0.03 µM) was 32.6%, the viability, T/C (second compound 0.316 µM, first compound 0.0949 µM) was 34.1% and the viability, T/C (second compound 0.316 µM, first compound 0.3 µM) was 34.1%. For the same molecule, the viability, T/C (second compound 1 µM, first compound 0.000949 µM) was 22.6%, the viability, T/C (second compound 1 µM, first compound 0.003 µM) was 21.8% and the viability, T/C (second compound 1 µM, first compound 0.00949 µM) was 23.2%. It also gave a viability, T/C (second compound 1 µM, first compound 0.03 µM) of 21.7%, a viability, T/C (second compound 1 µM, first compound 0.0949 µM) of 23% and a viability, T/C (second compound 1 µM, first compound 0.3 µM) of 25.2%. For the same molecule, the viability, T/C (second compound 3.16 µM, first compound 0.000949 µM) was 15.2%, the viability, T/C (second compound 3.16 µM, first compound 0.003 µM) was 12.6% and the viability, T/C (second compound 3.16 µM, first compound 0.00949 µM) was 13.6%. The viability, T/C (second compound 3.16 µM, first compound 0.03 µM) was 15.4%, the viability, T/C (second compound 3.16 µM, first compound 0.0949 µM) was 16% and the viability, T/C (second compound 3.16 µM, first compound 0.3 µM) was 15.3%. The viability, T/C (second compound 10 µM, first compound 0.000949 µM) was 9.1%, the viability, T/C (second compound 10 µM, first compound 0.003 µM) was 8.15% and the viability, T/C (second compound 10 µM, first compound 0.00949 µM) was 8.73%. It also gave a viability, T/C (second compound 10 µM, first compound 0.03 µM) of 8.94%, a viability, T/C (second compound 10 µM, first compound 0.0949 µM) of 9.91% and a viability, T/C (second compound 10 µM, first compound 0.3 µM) of 8.26%.

— PubChem BioAssay AID2060889 (Molecular Pharmacology Branch, DTP, NCI, 2025)
